Columns and labels:
[1] = biological target: T1, Human M3 receptor (Homo sapiens, UniProt P20309); test: M3 Receptor Radioligand Binding Assay; settings: human M3 receptor membranes, [3H]-N-methyl scopolamine; read-out: M3 binding affinity (Ki class)
T1 construct: purchased Perkin Elmer
Method: Biological Characterization M3 Receptor Radioligand Binding Assay
The assay was carried out in 96-well polypropylene plates in a volume of 250 ul. […] The final assay concentration of DMSO was 0.5% (v/v). The plates were sealed and incubated for 2 h at room temperature on an orbital shaker (slow speed). Membranes were harvested onto 96-well unifilter GF/C filter plates pre-treated with 0.5% polyethyleneimine (v/v), using a filter manifold, washed four times with 200 ul of assay buffer. The plates were dried before addition of 50 μl of microscint-0, sealed then read in a Trilux Microbeta scintillation counter.

[2] = biological target: T2, Human β2 adrenoceptor (Homo sapiens, UniProt P07550); test: β2 Adrenoceptor Radioligand Binding Assay; settings: human β2 adrenoceptor membranes, 125-I Cyanopindolol; read-out: B2 binding affinity (Ki class)
T2 construct: purchased Perkin Elmer
T2 sequence (P07550 whole entry): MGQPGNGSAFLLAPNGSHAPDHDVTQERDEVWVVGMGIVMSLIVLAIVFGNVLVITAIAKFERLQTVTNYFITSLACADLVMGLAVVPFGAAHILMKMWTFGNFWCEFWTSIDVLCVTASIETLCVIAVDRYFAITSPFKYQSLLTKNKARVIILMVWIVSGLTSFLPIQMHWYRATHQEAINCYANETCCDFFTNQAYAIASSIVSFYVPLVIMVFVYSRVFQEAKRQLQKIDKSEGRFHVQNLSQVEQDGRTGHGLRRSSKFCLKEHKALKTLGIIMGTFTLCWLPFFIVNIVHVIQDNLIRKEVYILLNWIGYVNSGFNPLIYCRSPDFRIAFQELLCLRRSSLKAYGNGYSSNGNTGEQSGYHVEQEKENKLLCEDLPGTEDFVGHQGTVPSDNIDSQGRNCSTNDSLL
Method: β2 Adrenoceptor Radioligand Binding Assay
The assay was carried out in 96-well polypropylene plates in a volume of 200 ul. The assay buffer used was 25 mM HEPES, 0.5% BSA (w/v), 1 mM EDTA, 0.02% ascorbic acid (v/v), (pH 7.4). The final assay concentration of DMSO was 0.5% (v/v). The plates were sealed and incubated for 1 h at room temperature on an orbital shaker (slow speed). Membranes were harvested onto 96-well unifilter GF/C filter plates pre-treated with 0.5% polyethyleneimine (v/v), using a filter manifold, washed six times with 200 ul of wash buffer containing 10 mM HEPES and 500 mM NaCl. The plates were dried before addition of 50 μl of microscint-0, sealed then read in a Trilux Microbeta scintillation counter. IC50 values are determined from competition curves using a non-linear curve fitting program. Ki values were calculated from IC50 values by the Cheng and Prusoff equation.

T1 sequence (P20309 whole entry): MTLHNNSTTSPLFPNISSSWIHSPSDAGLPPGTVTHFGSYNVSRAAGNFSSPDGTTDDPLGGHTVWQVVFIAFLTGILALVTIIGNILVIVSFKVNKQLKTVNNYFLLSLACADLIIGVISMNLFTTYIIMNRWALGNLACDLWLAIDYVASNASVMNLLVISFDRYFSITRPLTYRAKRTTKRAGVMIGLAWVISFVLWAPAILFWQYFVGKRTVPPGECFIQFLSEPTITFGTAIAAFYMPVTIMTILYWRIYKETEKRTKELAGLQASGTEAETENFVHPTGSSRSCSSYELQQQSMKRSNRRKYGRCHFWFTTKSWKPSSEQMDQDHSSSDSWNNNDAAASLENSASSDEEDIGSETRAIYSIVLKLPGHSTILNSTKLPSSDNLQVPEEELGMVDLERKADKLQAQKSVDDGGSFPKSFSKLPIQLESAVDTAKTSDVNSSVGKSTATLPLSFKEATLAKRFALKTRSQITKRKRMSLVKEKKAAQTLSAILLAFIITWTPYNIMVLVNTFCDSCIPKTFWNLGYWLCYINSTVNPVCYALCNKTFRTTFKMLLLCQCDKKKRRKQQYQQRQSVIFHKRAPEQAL

SMILES: O=C(NCCCCNC[C@H](O)c1ccc(O)c2[nH]c(=O)ccc12)c1ccc(C(=O)N2CC(C(=O)O[C@H]3CN4CCC3CC4)(c3ccccc3)C2)s1 [Compound 11A, (R)-Quinuclidin-3-yl 1-(5-((4-(((R)-2-hydroxy-2-(8-hydroxy-2-oxo-1,2-dihydroquinolin-5-yl)ethyl)amino)butyl)carbamoyl)thiophene-2-carbonyl)-3-phenylazetidine-3-carboxylate]
- Ki [1]: 1 to 10 nM
- Ki [2]: < 1 nM

SMILES: O=C(c1ccc(OCCCCCCNC[C@H](O)c2ccc(O)c3[nH]c(=O)ccc23)cc1)N1CCC(C(=O)O[C@H]2CN3CCC2CC3)(c2ccccc2)CC1 [Compound 49, (R)-Quinuclidin-3-yl 1-(4-((6-(((R)-2-hydroxy-2-(8-hydroxy-2-oxo-1,2-dihydroquinolin-5-yl)ethyl)amino)hexyl)oxy)benzoyl)-4-phenylpiperidine-4-carboxylate]
- Ki [1]: < 1 nM
- Ki [2]: < 1 nM

SMILES: CS(=O)(=O)N(Cc1ccc(CNC[C@H](O)c2ccc(O)c3[nH]c(=O)ccc23)cc1)Cc1ccc(C(=O)N2CCC(C(=O)O[C@H]3CN4CCC3CC4)(c3ccccc3)CC2)cc1 [Compound 58, (R)-Quinuclidin-3-yl 1-(4-((N-(4-((((R)-2-hydroxy-2-(8-hydroxy-2-oxo-1,2-dihydroquinolin-5-yl)ethyl)amino)methyl)benzyl)methylsulfonamido)-methyl)benzoyl)-4-phenylpiperidine-4-carboxylate]
- Ki [1]: 1 to 10 nM
- Ki [2]: 1 to 10 nM

SMILES: COC(=O)N(Cc1ccc(CNC[C@H](O)c2ccc(O)c3[nH]c(=O)ccc23)cc1)Cc1ccc(C(=O)N2CCC(C(=O)O[C@H]3CN4CCC3CC4)(c3ccccc3)CC2)cc1 [Compound 62, (R)-Quinuclidin-3-yl 1-(4-(((4-((((R)-2-hydroxy-2-(8-hydroxy-2-oxo-1,2-dihydroquinolin-5-yl)ethyl)amino)methyl)benzyl)(methoxycarbonyl)amino)-methyl)benzoyl)-4-phenylpiperidine-4-carboxylate]
- Ki [1]: < 1 nM
- Ki [2]: 1 to 10 nM

SMILES: O=C(c1ccc(OCCCCCNC[C@H](O)c2ccc(O)c3[nH]c(=O)ccc23)c(Cl)c1)N1CCC(C(=O)O[C@H]2CN3CCC2CC3)(c2ccccc2)CC1 [Compound 4, (R)-Quinuclidin-3-yl 1-(4-((5-(((R)-2-hydroxy-2-(8-hydroxy-2-oxo-1,2-dihydroquinolin-5-yl)ethyl)amino)pentyl)oxy)-3-chlorobenzoyl)-4-phenylpiperidine-4-carboxylate]
- Ki [1]: 1 to 10 nM
- Ki [2]: < 1 nM

SMILES: O=C(c1ccc(OCCCCCNC[C@H](O)c2ccc(O)c3[nH]c(=O)ccc23)c(-c2ccsc2)c1)N1CCC(C(=O)O[C@H]2CN3CCC2CC3)(c2ccccc2)CC1 [Compound 6, (R)-Quinuclidin-3-yl 1-(4-((5-(((R)-2-hydroxy-2-(8-hydroxy-2-oxo-1,2-dihydroquinolin-5-yl)ethyl)amino)pentyl)oxy)-3-(thiophen-3-yl)benzoyl)-4-phenylpiperidine-4-carboxylate]
- Ki [1]: > 10 nM
- Ki [2]: < 1 nM

SMILES: O=C(CCc1ccc(OCCCCCNC[C@H](O)c2ccc(O)c3[nH]c(=O)ccc23)c(-c2ccccc2)c1)N1CCC(C(=O)O[C@H]2CN3CCC2CC3)(c2ccccc2)CC1 [Compound 16, (R)-Quinuclidin-3-yl 1-(3-(6-((5-(((R)-2-hydroxy-2-(8-hydroxy-2-oxo-1,2-dihydroquinolin-5-yl)ethyl)amino)pentyl)oxy)-[1,1′-biphenyl]-3-yl)propanoyl)-4-phenylpiperidine-4-carboxylate]
- Ki [1]: 1 to 10 nM
- Ki [2]: < 1 nM

SMILES: O=C(c1ccc(OCCCCCCNC[C@H](O)c2ccc(O)c3[nH]c(=O)ccc23)cc1)N1CC(C(=O)O[C@H]2CN3CCC2CC3)(c2ccccc2)C1 [Compound 2A, (R)-Quinuclidin-3-yl 1-(4-((6-(((R)-2-hydroxy-2-(8-hydroxy-2-oxo-1,2-dihydroquinolin-5-yl)ethyl)amino)hexyl)oxy)benzoyl)-3-phenylazetidine-3-carboxylate]
- Ki [1]: < 1 nM
- Ki [2]: < 1 nM

SMILES: CC(=O)N(Cc1ccc(CNC[C@H](O)c2ccc(O)c3[nH]c(=O)ccc23)cc1)Cc1ccc(C(=O)N2CCC(C(=O)O[C@H]3CN4CCC3CC4)(c3ccccc3)CC2)cc1 [Compound 57, (R)-Quinuclidin-3-yl 1-(4-((N-(4-((((R)-2-hydroxy-2-(8-hydroxy-2-oxo-1,2-dihydroquinolin-5-yl)ethyl)amino)methyl)benzyl)acetamido)methyl)benzoyl)-4-phenylpiperidine-4-carboxylate]
- Ki [1]: < 1 nM
- Ki [2]: 1 to 10 nM

SMILES: O=C(c1ccc(OCc2ccc(CCNC[C@H](O)c3ccc(O)c4[nH]c(=O)ccc34)cc2)cc1)N1CCC(C(=O)O[C@H]2CN3CCC2CC3)(c2ccccc2)CC1 [Compound 26, (R)-Quinuclidin-3-yl 1-(4-((4-(2-(((R)-2-hydroxy-2-(8-hydroxy-2-oxo-1,2-dihydroquinolin-5-yl)ethyl)amino)ethyl)benzyl)oxy)benzoyl)-4-phenylpiperidine-4-carboxylate]
- Ki [1]: < 1 nM
- Ki [2]: < 1 nM

SMILES: O=C(Cc1ccc(OCCCCCNC[C@H](O)c2ccc(O)c3[nH]c(=O)ccc23)c(-c2ccsc2)c1)N1CCC(C(=O)O[C@H]2CN3CCC2CC3)(c2ccccc2)CC1 [Compound 14, (R)-Quinuclidin-3-yl 1-(2-(4-((5-(((R)-2-hydroxy-2-(8-hydroxy-2-oxo-1,2-dihydroquinolin-5-yl)ethyl)amino)pentyl)oxy)-3-(thiophen-3-yl)phenyl)acetyl)-4-phenylpiperidine-4-carboxylate]
- Ki [1]: 1 to 10 nM
- Ki [2]: < 1 nM

SMILES: O=C(c1cc(Cl)c(OCCCCCNC[C@H](O)c2ccc(O)c3[nH]c(=O)ccc23)c(Cl)c1)N1CCC(C(=O)O[C@H]2CN3CCC2CC3)(c2ccccc2)CC1 [Compound 5, (R)-Quinuclidin-3-yl 1-(3,5-dichloro-4-((5-(((R)-2-hydroxy-2-(8-hydroxy-2-oxo-1,2-dihydroquinolin-5-yl)ethyl)amino)pentyl)oxy)benzoyl)-4-phenylpiperidine-4-carboxylate]
- Ki [1]: 1 to 10 nM
- Ki [2]: 1 to 10 nM

SMILES: O=C(CCc1ccc(OCc2ccc(CNC[C@H](O)c3ccc(O)c4[nH]c(=O)ccc34)cc2)cc1)N1CCC(C(=O)O[C@H]2CN3CCC2CC3)(c2ccccc2)CC1 [Compound 56, (R)-Quinuclidin-3-yl 1-(3-(4-((4-((((R)-2-hydroxy-2-(8-hydroxy-2-oxo-1,2-dihydroquinolin-5-yl)ethyl)amino)methyl)benzyl)oxy)phenyl)propanoyl)-4-phenylpiperidine-4-carboxylate]
- Ki [1]: 1 to 10 nM
- Ki [2]: < 1 nM

SMILES: O=C(NCCCNC[C@H](O)c1ccc(O)c2[nH]c(=O)ccc12)c1ccc(COc2ccc(C(=O)N3CC(C(=O)O[C@H]4CN5CCC4CC5)(c4ccccc4)C3)cc2)cc1 [Compound 19A, (R)-Quinuclidin-3-yl 1-(4-((4-((3-(((R)-2-hydroxy-2-(8-hydroxy-2-oxo-1,2-dihydroquinolin-5-yl)ethyl)amino)propyl)carbamoyl)benzyl)oxy)benzoyl)-3-phenylazetidine-3-carboxylate]
- Ki [1]: < 1 nM
- Ki [2]: < 1 nM

SMILES: O=C(Cc1ccc(CC(=O)N(CCCNC[C@H](O)c2ccc(O)c3[nH]c(=O)ccc23)Cc2ccccc2OCc2ccccc2)cc1)N1CCC(C(=O)O[C@H]2CN3CCC2CC3)(c2ccccc2)CC1 [Compound 43, (R)-Quinuclidin-3-yl 1-(2-(4-(2-((2-(benzyloxy)benzyl)(3-(((R)-2-hydroxy-2-(8-hydroxy-2-oxo-1,2-dihydroquinolin-5-yl)ethyl)amino)propyl)amino)-2-oxoethyl)phenyl)acetyl)-4-phenylpiperidine-4-carboxylate]
- Ki [1]: < 1 nM
- Ki [2]: 1 to 10 nM

SMILES: CCN(CCCNC[C@H](O)c1ccc(O)c2[nH]c(=O)ccc12)C(=O)c1ccc(CCC(=O)N2CC(C(=O)O[C@H]3CN4CCC3CC4)(c3ccccc3)C2)cc1 [Compound 12A, (R)-Quinuclidin-3-yl 1-(3-(4-(ethyl(3-(((R)-2-hydroxy-2-(8-hydroxy-2-oxo-1,2-dihydroquinolin-5-yl)ethyl)amino)propyl)carbamoyl)phenyl)propanoyl)-3-phenylazetidine-3-carboxylate]
- Ki [1]: 1 to 10 nM
- Ki [2]: 1 to 10 nM

SMILES: Cc1cc(/C=C/C(=O)N2CCC(C(=O)O[C@H]3CN4CCC3CC4)(c3ccccc3)CC2)ccc1OCCCCCNC[C@H](O)c1ccc(O)c2[nH]c(=O)ccc12 [Compound 18, (R)-Quinuclidin-3-yl 1-((E)-3-(4-((5-(((R)-2-hydroxy-2-(8-hydroxy-2-oxo-1,2-dihydroquinolin-5-yl)ethyl)amino)pentyl)oxy)-3-methylphenyl)acryloyl)-4-phenylpiperidine-4-carboxylate]
- Ki [1]: < 1 nM
- Ki [2]: < 1 nM

SMILES: O=C(CCc1ccc(OCCCCCNC[C@H](O)c2ccc(O)c3[nH]c(=O)ccc23)cc1)N1CC(C(=O)O[C@H]2CN3CCC2CC3)(c2ccccc2)C1 [Compound 5A, (R)-Quinuclidin-3-yl 1-(3-(4-((5-(((R)-2-hydroxy-2-(8-hydroxy-2-oxo-1,2-dihydroquinolin-5-yl)ethyl)amino)pentyl)oxy)phenyl)propanoyl)-3-phenylazetidine-3-carboxylate]
- Ki [1]: 1 to 10 nM
- Ki [2]: < 1 nM
